Blank lines part the entries; values can stand above or below the molecule they belong to.
How the values were obtained:
[1] = target: T1, C-C chemokine receptor type 3 (Homo sapiens, UniProt P51677); assay: Inhibitory activity against C-C chemokine receptor type 3
T1 sequence (P51677 whole entry): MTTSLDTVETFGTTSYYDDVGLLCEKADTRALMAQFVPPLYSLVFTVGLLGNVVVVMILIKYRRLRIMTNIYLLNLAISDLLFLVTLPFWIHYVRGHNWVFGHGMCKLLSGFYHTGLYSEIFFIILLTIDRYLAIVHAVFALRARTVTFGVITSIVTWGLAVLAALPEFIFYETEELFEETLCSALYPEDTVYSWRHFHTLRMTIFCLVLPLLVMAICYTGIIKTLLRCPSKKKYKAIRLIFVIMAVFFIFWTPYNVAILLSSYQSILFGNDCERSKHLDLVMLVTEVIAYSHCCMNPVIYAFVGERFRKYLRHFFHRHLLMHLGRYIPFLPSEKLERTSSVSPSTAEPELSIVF

[2] = target: T2, C-C chemokine receptor type 1 (Homo sapiens, UniProt P32246); assay: Inhibitory activity against C-C chemokine receptor type 1
T2 sequence (P32246 whole entry): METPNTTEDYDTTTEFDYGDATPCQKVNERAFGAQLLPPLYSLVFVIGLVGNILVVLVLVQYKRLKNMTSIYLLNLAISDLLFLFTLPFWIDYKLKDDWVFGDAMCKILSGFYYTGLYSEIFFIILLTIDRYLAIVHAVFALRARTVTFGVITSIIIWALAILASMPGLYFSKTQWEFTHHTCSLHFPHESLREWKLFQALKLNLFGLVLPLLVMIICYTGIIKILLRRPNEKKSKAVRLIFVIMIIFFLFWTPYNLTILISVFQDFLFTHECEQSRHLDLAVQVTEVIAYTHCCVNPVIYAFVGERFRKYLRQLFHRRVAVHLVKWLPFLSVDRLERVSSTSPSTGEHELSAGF

[3] = target: C-X-C chemokine receptor type 4 (Homo sapiens, UniProt P61073); assay: Inhibitory activity against C-X-C chemokine receptor type 4
C-X-C chemokine receptor type 4, sequence (P61073 whole entry): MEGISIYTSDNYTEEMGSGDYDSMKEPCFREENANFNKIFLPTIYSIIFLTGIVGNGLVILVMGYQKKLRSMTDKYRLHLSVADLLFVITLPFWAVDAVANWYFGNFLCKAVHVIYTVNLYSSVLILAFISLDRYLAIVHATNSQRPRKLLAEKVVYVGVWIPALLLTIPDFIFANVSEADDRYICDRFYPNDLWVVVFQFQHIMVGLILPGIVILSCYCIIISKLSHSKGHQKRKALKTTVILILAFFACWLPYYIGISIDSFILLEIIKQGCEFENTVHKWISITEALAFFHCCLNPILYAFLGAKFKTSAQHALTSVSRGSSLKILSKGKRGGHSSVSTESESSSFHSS

[4] = target: T3, C-C chemokine receptor type 5 (Homo sapiens, UniProt P51681); assay: Binding affinity against C-C chemokine receptor type 5 stably expressed in Chinese hamster ovary (CHO) cells using [125I]-MIP-1 alpha as the radioligand; format: cell-based
Target sequence in this assay (P51681 whole entry): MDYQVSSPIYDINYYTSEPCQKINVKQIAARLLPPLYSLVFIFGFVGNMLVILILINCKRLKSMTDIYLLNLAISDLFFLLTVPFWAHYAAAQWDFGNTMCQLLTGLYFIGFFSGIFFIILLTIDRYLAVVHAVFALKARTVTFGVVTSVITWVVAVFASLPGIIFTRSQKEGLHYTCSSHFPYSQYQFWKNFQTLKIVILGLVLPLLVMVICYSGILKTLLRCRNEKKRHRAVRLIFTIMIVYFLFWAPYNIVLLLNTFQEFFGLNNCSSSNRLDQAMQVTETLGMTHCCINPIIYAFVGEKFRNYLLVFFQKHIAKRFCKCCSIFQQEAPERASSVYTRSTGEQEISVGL

[5] = target: T4, C-C chemokine receptor type 4 (Homo sapiens, UniProt P51679); assay: Inhibitory activity against C-C chemokine receptor type 4
T4 sequence (P51679 whole entry): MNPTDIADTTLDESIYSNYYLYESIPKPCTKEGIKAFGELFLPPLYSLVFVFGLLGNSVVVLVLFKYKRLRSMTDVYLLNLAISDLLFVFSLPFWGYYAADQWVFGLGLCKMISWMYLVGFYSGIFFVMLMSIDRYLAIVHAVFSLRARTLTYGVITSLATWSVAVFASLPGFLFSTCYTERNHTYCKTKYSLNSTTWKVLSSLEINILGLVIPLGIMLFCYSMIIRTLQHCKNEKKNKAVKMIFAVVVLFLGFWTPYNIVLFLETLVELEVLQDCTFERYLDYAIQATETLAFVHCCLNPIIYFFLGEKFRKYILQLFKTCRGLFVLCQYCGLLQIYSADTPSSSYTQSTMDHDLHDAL

[6] = tested on: Human immunodeficiency virus 1; assay: Antiviral activity against HIV-1 viral replication in isolated peripheral blood mononuclear cells (PBMCs).; format: functional
[7] = target: C-C chemokine receptor type 2 (Homo sapiens, UniProt P41597); assay: Inhibitory activity against C-C chemokine receptor type 2
C-C chemokine receptor type 2, sequence (P41597 whole entry): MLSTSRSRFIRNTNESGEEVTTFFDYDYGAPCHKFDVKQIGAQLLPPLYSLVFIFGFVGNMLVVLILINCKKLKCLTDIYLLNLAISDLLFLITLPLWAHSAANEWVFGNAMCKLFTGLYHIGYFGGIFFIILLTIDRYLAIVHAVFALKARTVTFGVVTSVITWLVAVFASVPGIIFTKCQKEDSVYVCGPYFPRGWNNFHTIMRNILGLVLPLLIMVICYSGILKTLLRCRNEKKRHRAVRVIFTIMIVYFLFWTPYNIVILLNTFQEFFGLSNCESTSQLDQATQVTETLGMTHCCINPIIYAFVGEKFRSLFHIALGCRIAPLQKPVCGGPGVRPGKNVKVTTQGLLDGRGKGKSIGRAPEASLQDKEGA

[8] = target: T3, C-C chemokine receptor type 5; assay: Percent inhibition of the [125I]-MIP-1 alpha binding towards C-C chemokine receptor type 5 stably expressed in Chinese hamster ovary (CHO) cells at a concentration of 1 uM; format: cell-based
Target sequence in this assay (P51681 whole entry, looked up): as the sequence (P51681 whole entry) above

[9] = target: T3, C-C chemokine receptor type 5; assay: Percent inhibition of the [125I]-MIP-1 alpha binding towards C-C chemokine receptor type 5 stably expressed in Chinese hamster ovary (CHO) cells at a concentration of 1.7 uM; format: cell-based
Target sequence in this assay (P51681 whole entry, looked up): as the sequence (P51681 whole entry) above

[10] = target: T3, C-C chemokine receptor type 5; assay: Percent inhibition of the [125I]-MIP-1 alpha binding towards C-C chemokine receptor type 5 stably expressed in Chinese hamster ovary (CHO) cells at a concentration of 10 uM; format: cell-based
Target sequence in this assay (P51681 whole entry, looked up): as the sequence (P51681 whole entry) above

Structure (SMILES): Cn1cc(C[C@H]2NC(=O)N(CC(CCN3CCC(c4ccccc4)CC3)c3cccc(Cl)c3)C2=O)c2ccccc21 (stereo partly drawn)
inhibition [8]: 43%

Structure (SMILES): O=C1N[C@H](Cc2c[nH]c3ccccc23)C(=O)N1CC(CCN1CCC(c2ccccc2)CC1)c1ccccc1 (stereo in doubt; 22)
inhibition [8]: 71%

Structure (SMILES): O=C1N[C@H](Cc2ccccc2)C(=O)N1CC(CCN1CCC2(CC1)CSc1ccccc12)c1cccc(Cl)c1 (stereo partly drawn)
inhibition [9]: 24%

Structure (SMILES): O=C1N[C@H](Cc2c[nH]c3ccccc23)C(=O)N1CC(CCN1CCC(c2ccccc2)CC1)c1cccc(Cl)c1 (stereo in doubt)
IC50 [4]: 25 nM

Structure (SMILES): C[C@H]1NC(=O)N(CC(CCN2CCC(c3ccccc3)CC2)c2cccc(Cl)c2)C1=O (stereo partly drawn)
inhibition [10]: 43%

Structure (SMILES): O=C1N[C@H](Cc2ccccc2)C(=O)N1CC(CCN1CCC2(CC1)C[S+]([O-])c1ccccc12)c1cccc(Cl)c1 (stereo partly drawn)
inhibition [9]: 39%

Structure (SMILES): O=C1N[C@H](Cc2c[nH]c3ccccc23)C(=O)N1CC(CCN1CCC(c2ccccc2)CC1)c1ccccc1 (stereo in doubt; 24)
inhibition [8]: 71%

Structure (SMILES): O=C1N[C@H](Cc2c[nH]c3ccccc23)C(=O)N1CC(CCN1CCC(c2ccccc2)CC1)c1cccc(Cl)c1 (single isomer, unassigned)
IC50 [4]: 80 nM

Structure (SMILES): O=C1N[C@H](Cc2c[nH]cn2)C(=O)N1CC(CCN1CCC(c2ccccc2)CC1)c1ccccc1 (stereo partly drawn)
inhibition [8]: 25%

Structure (SMILES): O=C1CC2(CCN(CCC(CN3C(=O)N[C@H](Cc4ccccc4)C3=O)c3cccc(Cl)c3)CC2)c2ccccc21 (stereo partly drawn)
IC50 [4]: 200 nM

Structure (SMILES): CS(=O)(=O)N1CC2(CCN(CCC(CN3C(=O)N[C@H](Cc4ccccc4)C3=O)c3cccc(Cl)c3)CC2)c2ccccc21 (stereo partly drawn)
inhibition [8]: 55%

Structure (SMILES): O=C1CC2(CCN(CCC(CN3C(=O)N[C@H](c4ccccc4)C3=O)c3cccc(Cl)c3)CC2)c2ccccc21 (stereo partly drawn)
IC50 [4]: 606 nM

Structure (SMILES): CN1C(=O)N(CC(CCN2CCC(c3ccccc3)CC2)c2cccc(Cl)c2)C(=O)[C@H]1Cc1ccccc1 (stereo partly drawn)
inhibition [8]: 52%

Structure (SMILES): O=C1[C@@H](Cc2ccccc2)N(Cc2ccccc2)C(=O)N1CC(CCN1CCC(c2ccccc2)CC1)c1cccc(Cl)c1 (stereo partly drawn)
inhibition [8]: 40%

Structure (SMILES): O=C1N[C@H](Cc2csc3ccccc23)C(=O)N1CC(CCN1CCC(c2ccccc2)CC1)c1cccc(Cl)c1 (stereo partly drawn)
inhibition [8]: 67%

Structure (SMILES): O=C1CC2(CCN(CCC(CN3C(=O)N[C@@H](c4ccccc4)C3=O)c3cccc(Cl)c3)CC2)c2ccccc21 (stereo partly drawn)
inhibition [8]: 52%

Structure (SMILES): O=C1N[C@H](Cc2ccccc2)C(=O)N1CC(CCN1CCC(c2ccccc2)CC1)c1cccc(Cl)c1 (stereo partly drawn)
IC50 [4]: 250 nM

The next lines start with results.

IC50 [1]: > 1000 nM
IC50 [2]: > 1000 nM
IC50 [3]: > 1000 nM
IC50 [4]: 5 nM
IC50 [5]: > 1000 nM
IC50 [7]: > 1000 nM
Structure (SMILES): C=CCN(C(=O)OCc1ccccc1)C1CCN(CCC(C)(CN2C(=O)N[C@H](Cc3c[nH]c4ccccc34)C2=O)c2ccccc2)CC1 (stereo partly drawn)
IC95 [6]: > 3000 nM

IC50 [1]: > 1000 nM
IC50 [2]: > 1000 nM
IC50 [3]: > 1000 nM
IC50 [4]: 7 nM
IC50 [5]: > 1000 nM
IC50 [7]: > 1000 nM
Structure (SMILES): C=CCN(C(=O)OCc1ccccc1)C1CCN(CCC(CN2C(=O)N[C@H](Cc3c[nH]c4ccccc34)C2=O)c2ccccc2)CC1 (stereo partly drawn)
IC95 [6]: > 3000 nM

inhibition [8]: 80%
Structure (SMILES): CC(CCN1CCC(c2ccccc2)CC1)(CN1C(=O)N[C@H](Cc2c[nH]c3ccccc23)C1=O)c1ccccc1 (stereo partly drawn)

IC50 [4]: 100 nM
Structure (SMILES): CC(CCN1CCC(c2ccccc2)CC1)(CN1C(=O)N[C@H](Cc2c[nH]c3ccccc23)C1=O)c1cccc(Cl)c1 (stereo partly drawn)

IC50 [1]: > 1000 nM
IC50 [2]: > 1000 nM
IC50 [3]: > 1000 nM
IC50 [4]: 32 nM
IC50 [5]: > 1000 nM
IC50 [7]: > 1000 nM
Structure (SMILES): C=CCN(C(=O)OCc1ccccc1)C1CCN(CCC(C)(CN2C(=O)N[C@H](Cc3c[nH]c4ccccc34)C2=O)c2cccc(Cl)c2)CC1 (stereo partly drawn)

IC50 [1]: > 1000 nM
IC50 [2]: > 1000 nM
IC50 [3]: > 1000 nM
IC50 [4]: 3 nM
IC50 [5]: > 1000 nM
IC50 [7]: > 1000 nM
Structure (SMILES): C=CCN(C(=O)OCc1ccccc1)C1CCN(CCC(CN2C(=O)N[C@H](Cc3c[nH]c4ccccc34)C2=O)c2cccc(Cl)c2)CC1 (stereo partly drawn)
IC95 [6]: 12500 nM

IC50 [1]: > 1000 nM
IC50 [2]: > 1000 nM
IC50 [3]: > 1000 nM
IC50 [4]: 4 nM
IC50 [5]: > 1000 nM
IC50 [7]: > 1000 nM
Structure (SMILES): CCN(C(=O)OCc1ccccc1)C1CCN(CCC(C)(CN2C(=O)N[C@H](Cc3c[nH]c4ccccc34)C2=O)c2ccccc2)CC1 (stereo partly drawn)
IC95 [6]: 12500 nM

IC50 [1]: > 1000 nM
IC50 [2]: > 1000 nM
IC50 [3]: > 1000 nM
IC50 [4]: 13 nM
IC50 [5]: > 1000 nM
IC50 [7]: > 1000 nM
Structure (SMILES): CCN(C(=O)OCc1ccccc1)C1CCN(CCC(CN2C(=O)N[C@H](Cc3c[nH]c4ccccc34)C2=O)c2ccccc2)CC1 (stereo partly drawn)
IC95 [6]: 25000 nM

IC50 [4]: 77 nM
Structure (SMILES): CCN(C(=O)OCc1ccccc1)C1CCN(CCC(C)(CN2C(=O)N[C@H](Cc3c[nH]c4ccccc34)C2=O)c2cccc(Cl)c2)CC1 (stereo partly drawn)

IC50 [1]: > 1000 nM
IC50 [2]: > 1000 nM
IC50 [3]: > 1000 nM
IC50 [4]: 2 nM
IC50 [5]: > 1000 nM
IC50 [7]: > 1000 nM
Structure (SMILES): CCN(C(=O)OCc1ccccc1)C1CCN(CCC(CN2C(=O)N[C@H](Cc3c[nH]c4ccccc34)C2=O)c2cccc(Cl)c2)CC1 (stereo partly drawn)
IC95 [6]: 12500 nM
